Patent US7704971B2, “Uracil reductase inactivators” (SmithKlineBeecham Corporation, priority 1990, dated 2010)
Like-named read-outs stand apart in the source and are kept apart here. Marks after values point to notes of the source that are not given here.

Assays:
[1] = biological target: T1, Uracil reductase (dihydropyrimidine dehydrogenase, EC 1.3.1.2) (Bos taurus, UniProt Q28007); experiment: Determination of uracil reductase inactivation; format: biochemical, bovine; conditions: for relative first-order rate constants for inactivation of enzyme (parenthetical values): 50 micromol inactivator, fractional activity vs time of incubation; for inhibition at 100 µM: 0.5 h
T1 construct: purified from bovine liver; from tissue; host or cells: bovine liver
T1 sequence (Q28007 1-1025): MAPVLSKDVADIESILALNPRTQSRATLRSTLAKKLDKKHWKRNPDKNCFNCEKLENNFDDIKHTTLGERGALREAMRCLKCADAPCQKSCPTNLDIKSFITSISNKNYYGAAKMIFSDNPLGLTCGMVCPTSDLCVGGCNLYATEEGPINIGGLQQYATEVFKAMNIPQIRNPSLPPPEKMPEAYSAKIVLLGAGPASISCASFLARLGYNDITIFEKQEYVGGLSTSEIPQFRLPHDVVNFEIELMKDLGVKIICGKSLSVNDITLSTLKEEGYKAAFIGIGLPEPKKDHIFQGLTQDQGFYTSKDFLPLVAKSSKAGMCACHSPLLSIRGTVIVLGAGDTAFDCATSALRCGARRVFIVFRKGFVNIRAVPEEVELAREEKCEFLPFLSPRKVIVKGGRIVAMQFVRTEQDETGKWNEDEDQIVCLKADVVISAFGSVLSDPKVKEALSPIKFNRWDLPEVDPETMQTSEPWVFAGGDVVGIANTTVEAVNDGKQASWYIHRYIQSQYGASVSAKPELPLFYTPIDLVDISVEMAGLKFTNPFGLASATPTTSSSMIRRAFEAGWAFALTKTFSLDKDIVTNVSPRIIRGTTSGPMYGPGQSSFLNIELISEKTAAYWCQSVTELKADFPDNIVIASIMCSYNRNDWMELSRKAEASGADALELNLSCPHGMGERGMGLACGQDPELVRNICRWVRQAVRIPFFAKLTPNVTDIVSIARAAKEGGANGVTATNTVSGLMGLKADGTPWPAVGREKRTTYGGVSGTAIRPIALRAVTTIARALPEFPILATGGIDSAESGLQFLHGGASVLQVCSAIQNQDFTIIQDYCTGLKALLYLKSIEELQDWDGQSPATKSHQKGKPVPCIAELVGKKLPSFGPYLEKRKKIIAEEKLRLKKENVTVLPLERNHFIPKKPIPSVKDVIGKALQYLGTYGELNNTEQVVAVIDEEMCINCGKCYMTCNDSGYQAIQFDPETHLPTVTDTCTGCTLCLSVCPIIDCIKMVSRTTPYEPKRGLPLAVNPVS
Procedure: Uracil reductase (1 micromolar) (dihydropyrimidine dehydrogenase, EC 1.3.1.2) purified from bovine liver was incubated with 100 micromolar inactivator and 5 mM dithiothreitol (enzyme reductant) at 37° for 30 minutes in 0.05 M Tris-HCl at pH 8.0. The enzyme and inactivator were diluted 100-fold into the assay buffer, which contained 200 micromolar NADPH, 200 micromolar thymine and 1 mM dithiothreitol in Tris-HCl at pH 8.0. The velocity of the enzyme was determined spectrophotometrically. These velocities have been corrected for NADPH oxidase activity, which was less than […] of the rate of thymine-dependent oxidation of NADPH. The % inactivation of the enzyme was equal to 100% minus the percent of enzymatic activity remaining. Enzyme incubated without inhibitor was stable under these conditions. Parenthetical values are the relative first-order rate constants for inactivation of enzyme determined from similar experiments where the fractional activity was measured as a function of the time of incubation of 50 micromol inactivator with enzyme.

[2] = biological target: T2, dihydrothymidine dehydrogenase (Homo sapiens, UniProt Q12882); conditions: Cancer Research 46, 1094, 1986; cited from earlier work
T2 sequence (Q12882 4-1025): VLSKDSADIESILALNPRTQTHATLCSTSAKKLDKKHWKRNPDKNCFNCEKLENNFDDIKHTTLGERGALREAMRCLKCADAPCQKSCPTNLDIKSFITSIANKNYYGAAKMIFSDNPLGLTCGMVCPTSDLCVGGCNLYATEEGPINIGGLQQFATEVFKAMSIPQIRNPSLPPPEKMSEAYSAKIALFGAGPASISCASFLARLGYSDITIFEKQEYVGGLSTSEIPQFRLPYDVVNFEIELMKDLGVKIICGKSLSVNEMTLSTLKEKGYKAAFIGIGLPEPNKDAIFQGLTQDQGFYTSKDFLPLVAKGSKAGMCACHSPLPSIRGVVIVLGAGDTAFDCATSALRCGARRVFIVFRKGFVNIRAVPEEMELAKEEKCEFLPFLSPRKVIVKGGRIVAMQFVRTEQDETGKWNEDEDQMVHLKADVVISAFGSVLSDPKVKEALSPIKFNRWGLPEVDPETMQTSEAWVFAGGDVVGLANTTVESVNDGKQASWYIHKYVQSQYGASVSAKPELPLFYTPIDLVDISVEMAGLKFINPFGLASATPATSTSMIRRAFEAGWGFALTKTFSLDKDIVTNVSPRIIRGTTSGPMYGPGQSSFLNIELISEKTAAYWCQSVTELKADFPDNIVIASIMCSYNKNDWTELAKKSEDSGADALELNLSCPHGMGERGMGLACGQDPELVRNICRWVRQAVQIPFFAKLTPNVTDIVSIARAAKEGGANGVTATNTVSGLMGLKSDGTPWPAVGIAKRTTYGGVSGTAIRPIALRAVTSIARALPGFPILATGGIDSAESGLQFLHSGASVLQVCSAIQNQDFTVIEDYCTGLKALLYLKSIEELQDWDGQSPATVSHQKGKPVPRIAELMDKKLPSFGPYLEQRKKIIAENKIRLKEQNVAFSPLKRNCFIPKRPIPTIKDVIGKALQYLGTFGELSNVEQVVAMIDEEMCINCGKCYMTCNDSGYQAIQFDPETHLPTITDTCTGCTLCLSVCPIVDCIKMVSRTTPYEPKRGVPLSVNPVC

[3] = in vivo; cited from earlier work
Colon 38 tumor = experiment: Potentiation of the antitumor activity of 5-FU by EU, Colon 38 tumor in mice; format: in vivo
Procedure: Colon 38 tumor was implanted in mice on day zero. Mice (8 per group) were treated with 5-FU on days one through nine with the doses indicated in Table 2 EU was dosed i.p. at 2 mg/kg 30 minutes prior to 5-FU dosing where indicated.

[4] = 100 micromolar inactivator, 1 micromolar enzyme, 5 mM dithiothreitol, 37° for 30 minutes, pH 8.0, read-out: % Inactivation

| Structure (SMILES) | relative first-order rate constants for inactivation of enzyme (parenthetical values) [1] | inhibition at 100 µM [1, 4] | other results |
| --- | --- | --- | --- |
| C=C(Cl)c1c[nH]c(=O)[nH]c1=O [5-(1-chlorovinyl)uracil] | (5) | 100% |  |
| O=c1[nH]cc(C#CBr)c(=O)[nH]1 [5-bromoethynyluracil] | (8) | 100% |  |
| O=c1[nH]cc(Br)c(=O)[nH]1 [5-bromouracil] |  |  | inhibition at 100 µM ([1]; pH 8, read-out: % Inactivation): 75% |
| O=c1[nH]cc(C=CBr)c(=O)[nH]1 [BVU, 5-(2-bromovinyl)-uracil] |  |  | inhibition of dihydrothymidine dehydrogenase [2]: is an inhibitor; toxicity to humans [3]: toxic to humans |
| O=c1[nH]cc(F)c(=O)[nH]1 [FU, 5-fluorouracil] |  |  | % Mice Tumor Free on Day 17 (Colon 38 tumor; 5-FU 10 mg/kg i.p. days 1-9, no EU): 0%; % Mice Tumor Free on Day 17 (Colon 38 tumor; 5-FU 10 mg/kg p.o. days 1-9, no EU): 0%; % Mice Tumor Free on Day 17 (Colon 38 tumor; 5-FU 15 mg/kg i.p. days 1-9, no EU): 12.5%; % Mice Tumor Free on Day 17 (Colon 38 tumor; 5-FU 15 mg/kg p.o. days 1-9, no EU): 12.5%; % Mice Tumor Free on Day 17 (Colon 38 tumor; 5-FU 20 mg/kg i.p. days 1-9, no EU): 12.5%; % Mice Tumor Free on Day 17 (Colon 38 tumor; 5-FU 20 mg/kg p.o. days 1-9, no EU): 12.5%; % Mice Tumor Free on Day 17 (Colon 38 tumor; 5-FU 25 mg/kg p.o. days 1-9, no EU): 12.5%; % Mice Tumor Free on Day 17 (Colon 38 tumor; 5-FU 30 mg/kg i.p. days 1-9, no EU): 87.5^a %; % Mice Tumor Free on Day 17 (Colon 38 tumor; 5-FU 30 mg/kg p.o. days 1-9, no EU): 12.5% |

Continued, in another order:

| relative first-order rate constants for inactivation of enzyme (parenthetical values) [1] | inhibition at 100 µM [1, 4] | Structure (SMILES) | other results |
| --- | --- | --- | --- |
| (14) | 100% | N#Cc1c[nH]c(=O)[nH]c1=O [5-cyanouracil] |  |
|  | 90% | CCCCC#Cc1c[nH]c(=O)[nH]c1=O [5-hex-1-ynyluracil] |  |
| (8) | 100% | CC#Cc1c[nH]c(=O)[nH]c1=O [5-propynyluracil, 5-Propynyluracil] | melting point: 275 to 280 °C (dec.) |
|  | 75% | O=c1[nH]cc(C(F)(F)F)c(=O)[nH]1 [5-trifluoromethyluracil] |  |
|  | 86% | C=Cc1c[nH]c(=O)[nH]c1=O [5-vinyluracil] |  |
| (4) | 100% | O=c1[nH]cc(I)c(=O)[nH]1 [Example 5-iodouracil, 5-iodouracil] |  |
